Experiments:
[1] = target: T1, E3 ubiquitin-protein ligase CBL-B (Homo sapiens, UniProt Q13191); experiment: Inhibition of active phospho Cbl-b (unknown origin) using His-phospho ZAP70 as substrate incubated for 30 mins followed by substrate addition and measured after 30 mins by TR-FRET assay
[2] = target: T1, E3 ubiquitin-protein ligase CBL-B; experiment: Binding affinity to N-terminal Avi-tagged biotinylated human Cbl-b (40 to 426 residues) expressed in Escherichia coli by SPR assay

T1 sequence (Q13191 whole entry, the tested form may be a part): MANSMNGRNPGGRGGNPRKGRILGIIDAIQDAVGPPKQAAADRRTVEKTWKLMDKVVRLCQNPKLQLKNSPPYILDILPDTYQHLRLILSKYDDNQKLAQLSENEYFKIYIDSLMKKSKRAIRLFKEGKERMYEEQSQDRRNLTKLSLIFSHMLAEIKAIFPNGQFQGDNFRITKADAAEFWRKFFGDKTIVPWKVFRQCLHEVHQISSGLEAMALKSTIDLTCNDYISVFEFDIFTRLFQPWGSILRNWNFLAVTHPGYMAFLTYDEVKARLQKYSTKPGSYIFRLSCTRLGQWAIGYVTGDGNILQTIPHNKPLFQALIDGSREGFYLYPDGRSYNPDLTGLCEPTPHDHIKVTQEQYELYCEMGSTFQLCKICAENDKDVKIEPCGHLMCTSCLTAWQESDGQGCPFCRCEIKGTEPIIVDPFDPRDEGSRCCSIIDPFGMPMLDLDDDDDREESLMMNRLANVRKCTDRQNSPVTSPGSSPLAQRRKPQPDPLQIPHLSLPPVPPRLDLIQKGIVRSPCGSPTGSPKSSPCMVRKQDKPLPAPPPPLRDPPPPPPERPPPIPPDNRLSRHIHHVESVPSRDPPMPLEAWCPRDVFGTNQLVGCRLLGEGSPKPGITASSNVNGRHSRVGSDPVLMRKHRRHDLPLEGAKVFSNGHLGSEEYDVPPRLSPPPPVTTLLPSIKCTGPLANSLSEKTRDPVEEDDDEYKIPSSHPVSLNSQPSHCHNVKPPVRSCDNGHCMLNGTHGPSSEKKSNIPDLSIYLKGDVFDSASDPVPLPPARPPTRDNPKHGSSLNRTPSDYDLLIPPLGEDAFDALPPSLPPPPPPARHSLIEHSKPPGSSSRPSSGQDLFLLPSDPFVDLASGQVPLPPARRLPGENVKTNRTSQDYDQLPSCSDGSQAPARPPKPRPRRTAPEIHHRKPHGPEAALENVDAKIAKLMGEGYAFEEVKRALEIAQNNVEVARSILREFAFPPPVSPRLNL

## CCOC(=O)COc1c(OC)cc([N+](=O)[O-])cc1[C@@H]1N(C)C(=O)[C@H](C)N1C(=O)Cc1c(OC)ccc2c1Oc1c(ccc(OC)c1CC(=O)O)C2(C)C
[1]
  IC50: 890 nM

## CCOc1c(OC)cc([N+](=O)[O-])cc1[C@@H]1N(C)C(=O)[C@H](C)N1C(=O)Cc1c(OC)ccc2c1Oc1c(ccc(OC)c1C(=O)NS(C)(=O)=O)C2(C)C
[1]
  IC50: > 20000 nM

## CCN1C(=O)[C@H](C)N(C(=O)Cc2c(OC)ccc3c2Oc2c(ccc(OC)c2CC(=O)O)C3(C)C)[C@@H]1c1cc([N+](=O)[O-])cc(OC)c1OCC(=O)O
[1]
  IC50: 300 nM

## COc1ccc2c(c1CC(=O)O)Oc1c(ccc(OC)c1CC(=O)N1[C@H](c3cc([N+](=O)[O-])cc(OC)c3OCC(=O)O)N(C)C(=O)[C@@H]1C)C2(C)C
[1]
  IC50: 340 nM
[2]
  Kd: 280 nM

## CC[C@H]1C(=O)N(C)[C@@H](c2cc([N+](=O)[O-])cc(OC)c2OCC(=O)O)N1C(=O)Cc1c(OC)ccc2c1Oc1c(ccc(OC)c1CC(=O)O)C2(C)C
[1]
  IC50: 770 nM

## COc1ccc2c(c1CC(=O)O)Oc1c(ccc(OC)c1CC(=O)N1[C@@H](C)C(=O)N(C)[C@@H]1c1cc([N+](=O)[O-])cc(OC)c1OCC(=O)O)C2(C)C
[1]
  IC50: > 20000 nM
[2]
  Kd: 44000 nM

— ChEMBL document CHEMBL5532740, “Optimization of a Novel DEL Hit That Binds in the Cbl-b SH2 Domain and Blocks Substrate Binding” (ACS Med Chem Lett, 2024)
